Patent US20230020663A1, “SULFONAMIDE INHIBITORS AS CTPS1 INHIBITORS” (Step Pharma S.A.S., priority 2019, published 2023)

Tested on: human CTPS1 versus CTPS2
Experiment: Human CTPS1 versus CTPS2 selectivity assessment by RapidFire/MS analysis
Assay type: biochemical
Conditions: Table 26; RapidFire/MS IC50 ratio
Method: Human CTPS1 versus CTPS2 Selectivity Assessment by RapidFire/MS Analysis.
The enzyme inhibitory activities against each target isoform of interest may be determined for the compounds of the invention using an optimised RapidFire high-throughput mass spectrometry (RF/MS) assay format. RF/MS assays for both human CTPS1 and CTPS2 may be performed in assay buffer consisting of 50 mM HEPES (Merck), 20 mM MgCl2, 5 mM KCl, 1 mM DTT, 0.01% Tween-20, pH to 8.0 accordingly. Human full-length active C-terminal FLAG-His-tag CTPS1 (UniProtKB—P17812, CTPS[1-591]-[…]) may be obtained from Proteros biostructures GmbH. Human full length active C-terminal FLAG-His-Avi tagged CTPS2 (UniProtKB-Q9NRF8, CTPS2 [1-586]-[…]) may be obtained from Harker Bio.
Human CTPS (1 or 2) protein may be prepared in 1× assay buffer to the final working protein concentration required for the reaction. A 2 uL volume per well of 2×CTPS (1 or 2) protein may be mixed with 40 nL of compound using acoustic (ECHO) delivery and incubated for 10 minutes at 25° C. Each isoform enzymatic reaction may be subsequently initiated by addition of 2 uL per well of a 2× substrate mix in assay buffer. For hCTPS1: ATP (0.3 mM), UTP (0.2 mM), GTP (0.07 mM) and L-glutamine (0.1 mM). For hCTPS2: ATP (0.1 mM), UTP (0.04 mM), GTP (0.03 mM) and L-glutamine (0.1 mM). Each mixture may be incubated for an appropriate amount of time per isoform within the determined linear phase of the reaction at 25′C. A 60 uL volume of stop solution (1% formic acid with 0.5 uM ^13C9-^15N3-CTP in H2O) may be added and the plate immediately heat-sealed and centrifuged for 10 minutes at 4,000 rpm. Following centrifugation, plates may be loaded onto the Agilent RapidFire microfluidic solid phase extraction system coupled to an API4000 triple quadrupole mass spectrometer (RF/MS) for analysis.
In all cases, the enzyme converts UTP to CTP. Highly specific and sensitive multiple reaction monitoring (MRM) MS methods may be optimised for the detection of the enzymatic reaction product, CTP, and the stable isotope labelled product standard ^13C9-^15N3-CTP. Readout for data analysis may be calculated as the ratio between the peak area of the product CTP and the internal standard ^13C9-^15N3-CTP. For data reporting, the following equation may be used: […]
For each screening plate, the means of the negative (DMSO) and positive control values were used for the calculation of the respective assay window (S/B) and Z′ values. The median of the respective control values was used for calculation of percent inhibition according to the following equation: […]
Percentage inhibition was then plotted against compound concentration, and the 50% inhibitory concentration (IC50) was determined from the resultant concentration-response curve.
Fold selectivity between CTPS1 and CTPS2 was subsequently calculated according to the following equation: […]

Structure (SMILES)	Selectivity (fold selectivity between CTPS1 and CTPS2)
CCOc1cncc(-c2ccc(NC(=O)C(C)(C)c3ccnc(NS(=O)(=O)C4CC4)n3)c(C#N)c2)n1 [Example P34]	+ (2-30 fold (+))
CCC(C(=O)Nc1ccc(-c2cncc(OC(C)C)n2)cn1)c1ccnc(NS(=O)(=O)C2CC2)n1 (stereo not drawn) [Example P89]	+++ (>60 fold (+++))
CC(C)(C(=O)Nc1ccc(-c2cncc(C3CC3)n2)cn1)c1ccnc(NS(=O)(=O)C2CC2)n1 [Example P125]	++ (>30-60 fold (++))
CCOc1cncc(-c2ccc(NC(=O)C(F)(CC)c3ccnc(NS(=O)(=O)C4CC4)n3)nc2)n1 (single isomer, unassigned) [Example P113, 2-(2-(cyclopropanesulfonamido)pyrimidin-4-yl)-N-(5-(6-ethoxypyrazin-2-yl)pyridin-2-yl)-2-fluorobutanamide]	+ (2-30 fold (+))
CCOc1cncc(-c2ccc(NC(=O)C(F)(CC)c3cncc(NS(=O)(=O)C4CC4)n3)nc2)n1 (stereo not drawn) [Example P200]	++ (>30-60 fold (++))
CCOc1cncc(-c2ccc(NC(=O)C(F)(CC)c3ccnc(NS(C)(=O)=O)n3)nc2)n1 (stereo not drawn) [Example P151]	+++ (>60 fold (+++))
CCOc1cncc(-c2ccc(NC(=O)C(CC)c3ccnc(NS(=O)(=O)C4CC4)n3)nc2)n1 (stereo not drawn) [Example P88]	+++ (>60 fold (+++))
CCOc1cncc(-c2ccc(NC(=O)C(C)(OC)c3cncc(NS(=O)(=O)C4CC4)n3)nc2)n1 (stereo not drawn) [Example P205a]	+++ (>60 fold (+++))
CCOc1cncc(-c2ccc(NC(=O)C(CC)c3ccnc(NS(=O)(=O)C4CC4)n3)c(C)c2)n1 (stereo not drawn) [Example P161]	+ (2-30 fold (+))
CCC(C(=O)Nc1ccc(-c2cncc(OC)n2)cc1F)c1ccnc(NS(=O)(=O)C2CC2)n1 (stereo not drawn) [Example P95]	+ (2-30 fold (+))
CCOc1cncc(-c2cnc(NC(=O)C(CC)c3ccnc(NS(=O)(=O)C4CC4)n3)c(F)c2)n1 (stereo not drawn) [Example P162]	++ (>30-60 fold (++))
CC(C)c1cncc(-c2ccc(NC(=O)C(C)(C)c3ccnc(NS(=O)(=O)C4CC4)n3)cc2)n1 [Example P132]	++ (>30-60 fold (++))
CCOc1cncc(-c2ccc(NC(=O)C(C)(C)c3cncc(NS(=O)(=O)C4CC4)n3)nc2)n1 [Example P195]	+++ (>60 fold (+++))
CCC(C(=O)Nc1ccc(-c2cncc(C(F)(F)F)n2)cc1)c1ccnc(NS(=O)(=O)C2CC2)n1 (stereo not drawn) [Example P103]	+ (2-30 fold (+))
CC(C)Oc1cncc(-c2ccc(NC(=O)Cc3ccnc(NS(=O)(=O)C4CC4)n3)cc2)n1 [Example P21]	++ (>30-60 fold (++))
CCOc1cncc(-c2ccc(NC(=O)C(C)(C)c3nc(NS(=O)(=O)C4CC4)ncc3F)cc2)n1 [Example P68]	++ (>30-60 fold (++))
CCOc1cncc(-c2ccc(NC(=O)C(C)(CCOC)c3cncc(NS(=O)(=O)C4CC4)n3)nc2)n1 (stereo not drawn) [Example P198]	+++ (>60 fold (+++))
CCC(C(=O)Nc1ccc(-c2cncc(OCC(F)(F)F)n2)cc1)c1ccnc(NS(=O)(=O)C2CC2)n1 (stereo not drawn) [Example P108]	+++ (>60 fold (+++))
CCOc1cncc(-c2ccc(NC(=O)C(OC)c3ccnc(NS(=O)(=O)C4CC4)n3)cc2)n1 (stereo not drawn) [Example P164]	+ (2-30 fold (+))
CCOc1cncc(-c2ccc(NC(=O)C(CC)c3cncc(NS(=O)(=O)C4CC4)n3)nc2)n1 (stereo not drawn) [Example P201]	+++ (>60 fold (+++))
CCOc1cncc(-c2ccc(NC(=O)C(C)(C)c3cncc(NS(=O)(=O)C4CC4)n3)cc2)n1 [Example P196]	+++ (>60 fold (+++))
CC(C)Oc1cncc(-c2ccc(C(=O)NC(C)(C)c3cncc(NS(=O)(=O)C4CC4)n3)c(F)c2)n1 [Example P221]	+ (2-30 fold (+))
CCOc1cncc(-c2ccc(NC(=O)C(CC)c3ccnc(NS(=O)(=O)C4CC4)n3)cc2)n1 (stereo not drawn) [Example P105, 2-(2-(Cyclopropanesulfonamido)pyrimidin-4-yl)-N-(4-(6-ethoxypyrazin-2-yl)phenyl)butanamide]	++ (>30-60 fold (++))
CC(C)(NC(=O)c1ccc(-c2cncc(C(F)(F)F)n2)cc1)c1cncc(NS(=O)(=O)C2CC2)n1 [Example P222]	+ (2-30 fold (+))
CC(C)(C(=O)Nc1ccc(-c2cccnc2)cc1)c1ccnc(NS(=O)(=O)C2CC2)n1 [Example P59]	+ (2-30 fold (+))
CCOc1cncc(-c2ccc(NC(=O)C(C)(C)c3nc(NS(=O)(=O)C4CC4)ncc3C)cc2)n1 [Example P70]	+ (2-30 fold (+))
CCOc1cncc(-c2ccc(NC(=O)C(F)(CC)c3cncc(NS(=O)(=O)C4CC4)n3)nc2)n1 (single isomer, unassigned) [Example P206]	+++ (>60 fold (+++))
CC(C)Oc1cncc(-c2ccc(NC(=O)Cc3ccnc(NS(=O)(=O)C4CC4)n3)c(F)c2)n1 [Example P12]	++ (>30-60 fold (++))
CCOc1cncc(-c2ccc(NC(=O)C(C)(C)c3ccnc(NS(=O)(=O)C4CC4)n3)nc2)n1 [Example P31]	+++ (>60 fold (+++))

Same assay, conditions: Table 27; RapidFire/MS IC50 ratio

Structure (SMILES)	Selectivity (fold selectivity between CTPS1 and CTPS2)
CCOc1cncc(-c2ccc(NC(=O)C3(c4ccnc(NS(=O)(=O)C5CC5)n4)CCC(=O)CC3)nc2)n1 [Example P226, 1-(2-(Cyclopropanesulfonamido)pyrimidin-4-yl)-N-(5-(6-ethoxypyrazin-2-yl)pyridin-2-yl)-4-oxocyclohexanecarboxamide]	+++ (>60 fold (+++))
CCOc1cncc(-c2ccc(NC(=O)C3(c4ccnc(NS(=O)(=O)C5CC5)n4)CCC(N(C)C)CC3)nc2)n1 (single isomer, unassigned) [Example P229, 1-(2-(cyclopropanesulfonamido)pyrimidin-4-yl)-4-(dimethylamino)-N-(5-(6-ethoxypyrazin-2-yl)pyridin-2-yl)cyclohexane-1-carboxamide]	+++ (>60 fold (+++))
CCOc1cncc(-c2ccc(NC(=O)C3(c4ccnc(NS(=O)(=O)C5CC5)n4)CCC(F)(F)CC3)nc2)n1 [Example P242]	+++ (>60 fold (+++))
CCOc1cncc(-c2ccc(NC(=O)C3(c4ccnc(NS(=O)(=O)C5CC5)n4)CCC(N(C)C)CC3)nc2)n1 (single isomer, unassigned) [Example P230, 1-(2-(cyclopropanesulfonamido)pyrimidin-4-yl)-4-(dimethylamino)-N-(5-(6-ethoxypyrazin-2-yl)pyridin-2-yl)cyclohexane-1-carboxamide]	+++ (>60 fold (+++))
